Test results published in the supplement of paper PMC10307832.

Experiments:
Test in all cases: relative viability (nuclei count vs DMSO), 5 days (fraction); higher = more cells survive
[1] = compound: CC1=CC(=NN1)NC2=CC(=NC(=N2)/C=C/C3=CC=CC=C3)N4CCN(CC4)C + COc1cccc2cc(-c3nc([C@H]4CC[C@H](C(=O)O)CC4)n4ncnc(N)c34)[nH]c12 [OSI-027] (partner 0.5 µM)
How it was run: (§1)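 Lung cancer cell lines were pin-tool dosed in 1536-well plates on the day after seeding, with either a lone drug or a fixed anchor-drug dose plus five library-drug doses (not always all listed) in √10 steps. Nuclei were counted on 4× images after 5 days. Relative viability is the ratio of treated-well to vehicle-well nuclei counts, with each value a median of duplicate plates.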

Obatoclax + OSI-027 = compound: COC1=CC(c2cc3ccccc3[nH]2)=N/C1=C\c1[nH]c(C)cc1C [Obatoclax] + COc1cccc2cc(-c3nc([C@H]4CC[C@H](C(=O)O)CC4)n4ncnc(N)c34)[nH]c12 [OSI-027] (partner 0.5 µM)
How it was run: as §1

Obatoclax + Tozasertib = compound: COC1=CC(c2cc3ccccc3[nH]2)=N/C1=C\c1[nH]c(C)cc1C [Obatoclax] + Cc1cc(Nc2cc(N3CCN(C)CC3)nc(Sc3ccc(NC(=O)C4CC4)cc3)n2)n[nH]1 [Tozasertib] (partner 0.1 µM)
How it was run: as §1

Obatoclax + Pemetrexed = compound: COC1=CC(c2cc3ccccc3[nH]2)=N/C1=C\c1[nH]c(C)cc1C [Obatoclax] + Nc1nc2[nH]cc(CCc3ccc(C(=O)N[C@@H](CCC(=O)O)C(=O)O)cc3)c2c(=O)[nH]1 [Pemetrexed] (partner 0.2 µM)
How it was run: as §1

Cell Line | relative viability ([1]; first compound 0.08 µM) | relative viability ([1]; first compound 0.253 µM) | relative viability ([1]; first compound 0.8 µM) | relative viability ([1]; first compound 2.53 µM) | relative viability ([1]; first compound 8 µM) | relative viability (Obatoclax + OSI-027; first compound 0.01 µM) | relative viability (Obatoclax + OSI-027; first compound 0.03162 µM) | relative viability (Obatoclax + OSI-027; first compound 0.1 µM) | relative viability (Obatoclax + OSI-027; first compound 0.3162 µM) | relative viability (Obatoclax + OSI-027; first compound 1 µM) | relative viability (Obatoclax + Tozasertib; first compound 0.01 µM) | relative viability (Obatoclax + Tozasertib; first compound 0.03162 µM) | relative viability (Obatoclax + Tozasertib; first compound 0.1 µM) | relative viability (Obatoclax + Tozasertib; first compound 0.3162 µM) | relative viability (Obatoclax + Tozasertib; first compound 1 µM) | relative viability (Obatoclax + Pemetrexed; first compound 0.01 µM) | relative viability (Obatoclax + Pemetrexed; first compound 0.03162 µM) | relative viability (Obatoclax + Pemetrexed; first compound 0.1 µM) | relative viability (Obatoclax + Pemetrexed; first compound 0.3162 µM) | relative viability (Obatoclax + Pemetrexed; first compound 1 µM)
NCI-H2087 | 0.622 | 0.295 | 0.537 | 0.196 | 0.109 | 0.768 | 0.525 | 0.529 | 0.333 | 0.159 | 0.248 | 0.239 | 0.229 | 0.206 | 0.161 | 0.623 | 0.675 | 0.688 | 0.674 | 0.473
HOP-62 | 0.875 | 0.865 | 0.861 | 0.52 | 0.38 | 0.858 | 0.848 | 0.754 | 0.819 | 0.583 | 0.357 | 0.343 | 0.353 | 0.393 | 0.299 | 0.279 | 0.377 | 0.329 | 0.424 | 0.358
EKVX | 0.699 | 0.845 | 0.664 | 0.611 | 0.3 | 0.708 | 0.74 | 0.797 | 0.561 | 0.667 | 0.371 | 0.357 | 0.466 | 0.385 | 0.394 | 0.397 |  | 0.358 | 0.372 | 0.436
EMC-BAC-2 | 0.364 | 0.426 | 0.32 | 0.226 | 0.097 | 0.413 | 0.382 | 0.297 | 0.332 | 0.299 | 0.279 | 0.294 | 0.25 | 0.289 | 0.263 | 0.42 | 0.47 | 0.395 | 0.452 | 0.419
HARA | 0.361 | 0.474 | 0.649 | 0.252 | 0.0476 | 0.456 | 0.555 | 0.444 | 0.438 | 0.168 | 0.101 | 0.154 | 0.146 | 0.124 | 0.132 | 0.236 | 0.293 | 0.249 | 0.262 | 0.303
LU99A | 0.292 | 0.327 | 0.28 | 0.256 | 0.155 | 0.291 | 0.282 | 0.267 | 0.312 | 0.298 | 0.304 | 0.28 | 0.287 | 0.288 | 0.233 | 0.16 | 0.172 |  | 0.183 | 0.18
NCI-H1648 | 0.257 | 0.272 | 0.26 | 0.263 | 0.258 | 0.253 | 0.226 | 0.413 | 0.269 | 0.232 | 0.515 | 0.499 | 1.01 | 0.465 | 0.361 | 0.758 | 0.746 | 1.06 | 0.64 | 0.782
LK-2 | 0.207 | 0.222 | 0.179 | 0.171 | 0.124 | 0.261 | 0.214 | 0.225 | 0.256 | 0.192 | 0.194 | 0.175 | 0.197 | 0.208 | 0.149 | 0.273 | 0.227 | 0.248 |  | 0.317
NCI-H441 | 0.607 | 0.501 | 0.589 | 0.226 | 0.179 | 0.772 | 0.502 | 0.704 | 0.354 | 0.271 | 0.497 | 0.677 | 0.666 | 0.52 | 0.385 | 0.231 | 0.217 | 0.27 | 0.244 | 0.269
NCI-H23 | 0.417 | 0.563 | 0.539 | 0.291 | 0.115 | 0.632 | 0.62 | 0.626 | 0.503 | 0.243 | 0.378 | 0.484 | 0.454 | 0.301 | 0.241 | 0.665 | 0.636 | 0.717 | 0.561 | 0.468
NCI-H647 | 0.706 | 0.628 | 0.668 | 0.13 | 0.0671 | 0.606 | 0.692 | 0.585 | 0.346 | 0.184 | 0.254 | 0.304 | 0.301 | 0.222 | 0.112 | 0.207 | 0.164 | 0.19 | 0.144 | 0.116
201T | 0.718 | 0.756 | 0.803 | 0.531 | 0.112 | 0.762 | 0.786 | 0.773 | 0.748 | 0.822 | 0.896 | 0.94 | 0.93 | 0.876 | 1.04 | 0.339 | 0.315 | 0.282 | 0.34 | 0.359
NCI-H1734 | 0.637 | 0.527 | 0.475 | 0.234 | 0.139 | 0.648 | 0.612 | 0.569 | 0.465 | 0.254 | 0.296 | 0.264 | 0.265 | 0.236 | 0.226 | 0.419 | 0.427 | 0.359 | 0.415 | 0.364
NCI-H596 | 0.633 | 0.72 | 0.671 | 0.34 | 0.247 | 0.837 | 0.602 | 0.65 | 0.504 | 0.425 | 0.911 | 0.915 | 0.837 | 0.564 | 0.597 | 0.516 | 0.504 | 0.459 | 0.467 | 0.429
